Results from ChEMBL document CHEMBL1240511, “Design, synthesis, and in vitro pharmacology of new radiolabeled gamma-hydroxybutyric acid analogues including photolabile analogues with irreversible binding to the high-affinity gamma-hydroxybutyric acid binding sites” (J Med Chem, 2010).
Calls of active or inactive are those of the source. The calls are words filed in the database; no cut-off is given here.

Key:
[1] = Displacement of [3H]NCS-382 from GABAB receptor gamma-hydroxybutyric acid binding site in rat cerebral cortex synaptic membranes after 1 hr by liquid scintillation counting; format: cell membranes, Membrane
[2] = species: Rattus norvegicus; experiment: Binding affinity to GABAB receptor gamma-hydroxybutyric acid binding site in UV irradiated rat cerebral cortex synaptic membranes assessed as covalent binding at 100 nM after 1 hr by gamma-hydroxybutyric acid displacement assay; format: tissue-based; details: tested as the 125I-labelled form

Ki [1] [nM] | Activity [2] | Structure (SMILES)
186 | – | [N-]=[N+]=Nc1ccc(COc2ccc(C(O)CCC(=O)O)cc2)cc1I (centres undefined)
120 | Active | [N-]=[N+]=Nc1ccc(I)cc1COc1ccc(C(O)CCC(=O)O)cc1 (centres undefined)
75 | – | O=C(O)CCC(O)c1ccc(OCc2cccc(I)c2)cc1 (centres undefined)
